# “Also recorded” adds a separate entry of the source.
# What was measured:
# [1] = system: HepG2 CYP1A2; experiment: Radiotracer metabolic stability, CYP1A2-overexpressing HepG2 cells; assay type: in vitro ADME, human; details: radio-TLC
# Method: (§1) CYP-overexpressing human hepatocellular carcinoma cells (HepG2) were previously generated on the basis of subcloning human CYP1A2 [18], CYP2C19 [20], and CYP3A4 [21] cDNA into a lentiviral expression vector. The cDNA expression in the resulting vector was controlled by the human cytomegalovirus (CMV) promoter. The lentivirus expression vectors were used to produce recombinant lentivirus particles according to standard methods to infect HepG2 cells. Infected cells were selected with 3 µg/mL blasticidin for CYP2C19 and CYP3A4 and 500 µg/mL zeocin for CYP1A2 overexpression 48 h after infection. Within 3–4 weeks, antibiotic-resistant cell colonies were picked to obtain single cell-derived HepG2 clones. For more detailed information on the generation procedure of CYP-overexpressing HepG2 cells, see Steinbrecht et al..
# (§2) HepG2 cells were cultured in DMEM GlutaMax (Gibco, Paisley, UK) with 10% fetal calf serum (FCS) and with selective antibiotics (penicillin/streptomycin for wildtype, Zeocin (InvivoGen, San Diego, CA, USA) for CYP1A2, and Blasticidin (Gibco, Carlsbad, CA, USA) for CYP2C19 and CYP3A4 cultures). […] Cell density was determined with a cell counter (CASY® Model TT from Schärfe System, Reutlingen, Germany). […]
# (§3) Incubations with radiotracer compounds were conducted, on the one hand, with radioactive ^18F-labeled compounds alone (time dependency) and, on the other hand, in the presence of 50 µM nonradioactive reference (carrier addition). For the investigation of a time-dependent metabolite formation, 2 µL aliquots were withdrawn from the supernatant, directly spotted onto the TLC plate, and analyzed as described above. […]
# UPLC–MS analyses were performed to verify the degradation behavior of the test compounds and to gain insights into the identity of the formed metabolites. […] Additionally, incubations with the nonradioactive references were carried out with 100 nM or 50 µM (according to the carrier-added samples) and analyzed. UPLC–MS/MS was performed using System 2 (55% isocratic elution for quantification of intact compound, or 25–75% gradient for nonradioactive metabolite analysis). […]
# [2] = system: HepG2 wildtype; experiment: Radiotracer metabolic stability, HepG2 wildtype, radio-TLC; assay type: in vitro ADME, human; details: up to 2 h
# Method: as §1
# as §2, with “cultures). As a negative control, cultures of CHO cultivated in Ham’s F-12 medium (Gibco) with 10% FCS and 2 mM glutamine were added for the radiotracer experiments.” for “cultures).”
# [3] = system: HepG2 CYP1A2; experiment: Competitive coincubation of [18F]1 with competitors, HepG2 CYP1A2; details: 1 h; without any additional substance; 120–125 nM [18F]1
# Method: (§4) Radio thin-layer chromatography (radio-TLC) was carried out on reversed-phase TLC plates (ALUGRAM RP-18W/UV254 from Macherey-Nagel, Düren, Germany) with a mobile phase of 45% ACN in water containing 0.1% trifluoroacetic acid. The samples (2 µL) were spotted onto the TLC plate. The line of origin and the front line were labeled with 1/5 of the sample activity concentration. To track the Rf value of the intact radiotracer, each TLC was spotted with the intact tracer as reference in the middle. Detection of the activity signals was achieved after 10–30 min development on radioluminographic imaging plates (FUJIFILM, Tokyo, Japan) and subsequent readout with Fuji BAS 5000® or Amersham™ Typhoon™ from GE Healthcare (Uppsala, Sweden). The resulting chromatographic profile was analyzed and integrated with the help of AIDA Image Analysis Software (version 5.1). For data depiction, the fraction of each species (intact radiotracer, metabolite, [^18F]fluoride) was plotted.
# (§5) Incubations were conducted for up to 2 h in a 96-well plate in KHB with a total incubation volume of 50 µL and an ethanol concentration of 0.4%. For the incubation with radiotracers, an activity of 100–200 kBq/well at the start of the experiment was used.
# (§6) Our last interest within this study was to test if the tracer itself could function as an indicator for the conversion of other substrates acting via inhibition of or competition with the CYP enzymes. In this regard, alternative substrates were added to the incubation mixtures with [^18F]1. The investigated substrates covered testosterone, caffeine, progesterone, compound 3, tebufelone, and RWJ63556 [44] (10 µM for all substances). Furthermore, the influence of testosterone on the metabolic turnover of [^18F]1 was investigated over a concentration range of 1–50 µM.
# Figure 7 Coincubation of [^18F]1 and different competitors with (A) HepG2 CYP1A2 and (B) HepG2 CYP2C19. […] Each competitor/inhibitor was incubated with [^18F]1 for 1 h followed by radio-TLC analysis. Activity concentrations of 94–197 kBq/well (1.9–3.9 MBq/mL) were used at start of experiment, which correspond to a concentration of 120–125 nM. Statistical analysis performed with Dunnett’s multiple comparison (post hoc test) according to the intact tracer amount (* p < 0.05; *** p < 0.001; **** p < 0.0001; n = 4).
# [4] = system: HepG2 CYP2C19; experiment: Competitive coincubation of [18F]1 with competitors, HepG2 CYP2C19; details: 1 h; without additional substances; 120–125 nM [18F]1
# Method: as §4, §5, §6
# Figure 7 Coincubation of [^18F]1 and different competitors with (A) HepG2 CYP1A2 and (B) HepG2 CYP2C19. […] Each competitor/inhibitor was incubated with [^18F]1 for 1 h followed by radio-TLC analysis. […]
# [5] = system: all utilized cell lines; experiment: Activity distribution between supernatant, wash and cells, summary over all utilized cell lines; assay type: in vitro ADME; details: end of incubation period (2 h); range over cell lines
# Method: (§7) HepG2 cells were cultured in DMEM GlutaMax (Gibco, Paisley, UK) with 10% fetal calf serum (FCS) and with selective antibiotics (penicillin/streptomycin for wildtype, Zeocin (InvivoGen, San Diego, CA, USA) for CYP1A2, and Blasticidin (Gibco, Carlsbad, CA, USA) for CYP2C19 and CYP3A4 cultures). As a negative control, cultures of CHO cultivated in Ham’s F-12 medium (Gibco) with 10% FCS and 2 mM glutamine were added for the radiotracer experiments. Cells were handled under a laminar flow hood (Thermo Scientific^TM Safe 2020, Langenselbold, Germany) and were split once or twice a week by trypsinization. Cell cultures were stored horizontally in a humidified incubator (Heracell240i) at 37 °C and 5% CO2. […] Cell density was determined with a cell counter (CASY® Model TT from Schärfe System, Reutlingen, Germany). […]
# Initially, CYP-overexpressing HepG2 and, as controls, HepG2 wildtype, as well as CHO (Chinese hamster ovary) cells, were incubated as an adhered monolayer in a 96-well plate with a relatively high activity concentration of [^18F]1 (25 MBq/mL; workflow according to Figure 1A, upper panel), and the supernatant and cell lysates were investigated by radio-TLC. […] As a result (Table 1), the main fraction of activity was found in the supernatant (64–91%), while only a negligible to low amount of activity was measured in cell lysates (1–16%). […]
# [6] = system: CHO (Chinese hamster ovary) cells; experiment: Radiotracer metabolic stability, CHO cells (negative control), radio-TLC; assay type: in vitro ADME; details: up to 2 h
# Method: as §7, with “CO2. During the time of experimental work, the utilized cell lines were regularly checked for mycoplasma.” for “CO2.”
# as §3
# [7] = system: murine liver microsomes (MLMs); experiment: Microsome assay, murine liver microsomes; assay type: in vitro ADME; details: 1 h incubation
# Method: (§8) The stability of [^18F]1 toward liver microsomes was analyzed under oxidative conditions with MLMs (MSMCP, Lot: MS046-C) and HLMs (HMMCPL; Lot: PL050E-B) according to a previously described procedure. In brief, 12.5 µL of the respective microsomes (final 1 mg/mL) were mixed with 110.4 µL of PBS, followed by the addition of 100 µL of [^18F]1 (with 5 MBq and 1% ethanol; final 0.4% ethanol) and 2.1 µL of reference compound (final concentration 50 µM 1), or an equivalent of DMSO. The resulting mixture was mixed at 37 °C for 5 min, and the reaction was then initiated by the addition of 25 µL of NADPH (final 2 mM). After 1 h incubation, the resulting samples were mixed with ice-cold ACN (1/4, v/v) and vortexed for 30 s, placed on ice for 4 min, and finally centrifuged at 13,200 rpm for 5 min at 4 °C. The supernatant was separated and used for further analysis by radio-HPLC (6–10 µL injection volume; System 1b with 25–75% gradient elution) and radio-TLC analysis (2 µL applied on TLC, analysis as described above).
# [8] = system: human liver microsomes (HLMs); experiment: Microsome assay, human liver microsomes; assay type: in vitro ADME; details: for Amount of intact tracer: radio-TLC
# Method: as §8
# [9] = system: HepG2 CYP3A4; experiment: Radiotracer metabolic stability, CYP3A4-overexpressing HepG2 cells; assay type: in vitro ADME, human; details: HepG2 CYP3A4, up to 2 h; radio-TLC
# Method: as §1
# as §2, with “cultures). As a negative control, cultures of CHO cultivated in Ham’s F-12 medium (Gibco) with 10% FCS and 2 mM glutamine were added for the radiotracer experiments.” for “cultures).”
# [10] = system: HepG2 CYP2C19; experiment: Radiotracer metabolic stability, CYP2C19-overexpressing HepG2 cells; assay type: in vitro ADME, human
# Method: as §1
# (§9) HepG2 cells were cultured in DMEM GlutaMax (Gibco, Paisley, UK) with 10% fetal calf serum (FCS) and with selective antibiotics (penicillin/streptomycin for wildtype, Zeocin (InvivoGen, San Diego, CA, USA) for CYP1A2, and Blasticidin (Gibco, Carlsbad, CA, USA) for CYP2C19 and CYP3A4 cultures). As a negative control, cultures of CHO cultivated in Ham’s F-12 medium (Gibco) with 10% FCS and 2 mM glutamine were added for the radiotracer experiments. Cells were handled under a laminar flow hood (Thermo Scientific^TM Safe 2020, Langenselbold, Germany) and were split once or twice a week by trypsinization. Cell cultures were stored horizontally in a humidified incubator (Heracell240i) at 37 °C and 5% CO2. During the time of experimental work, the utilized cell lines were regularly checked for mycoplasma. Cells were seeded in duplicates into a 96-well plate (CellStar®) with a density of 3 × 10^5 cells/well and cultured until the next day at 37 °C and 5% CO2. Cell density was determined with a cell counter (CASY® Model TT from Schärfe System, Reutlingen, Germany). Before the addition of substrates, cells were washed twice with Krebs–Henseleit buffer (KHB). The HEPES-supplemented Krebs–Henseleit buffer (pH 7.4, KHB) was freshly prepared using HEPES (5.95 g/L), D-glucose (2.0 g/L), magnesium sulfate (0.141 g/L), potassium dihydrogenphosphate (0.16 g/L), potassium chloride (0.35 g/L), sodium chloride (6.9 g/L), calcium chloride dihydrate (0.373 g/L), and sodium bicarbonate (2.1 g/L), followed by adjustment to pH 7.4 with NaOH. The utilized substances within this study were neither found (see Supplementary Materials, Figure S14) nor reported to be cytotoxic within the utilized concentration range and incubation duration.
# Incubations with radiotracer compounds were conducted, on the one hand, with radioactive ^18F-labeled compounds alone (time dependency) and, on the other hand, in the presence of 50 µM nonradioactive reference (carrier addition). For the investigation of a time-dependent metabolite formation, 2 µL aliquots were withdrawn from the supernatant, directly spotted onto the TLC plate, and analyzed as described above. The same procedure was performed for carrier-added samples.
# UPLC–MS analyses were performed to verify the degradation behavior of the test compounds and to gain insights into the identity of the formed metabolites. Using radiotracer incubation samples, 40 µL aliquots of the carrier-added incubations were withdrawn followed by addition of 160 µL of ACN and centrifugation (14,000 rpm (18,800–20,800× g), 4 °C, 5 min). Samples were frozen at −20 °C, and activity was allowed to decay before further mass-spectrometric analyses. Additionally, incubations with the nonradioactive references were carried out with 100 nM or 50 µM (according to the carrier-added samples) and analyzed. UPLC–MS/MS was performed using System 2 (55% isocratic elution for quantification of intact compound, or 25–75% gradient for nonradioactive metabolite analysis). The MRM mode was optimized with a solution of respective reference compounds diluted in eluent. […]
# [11] = Radiotracer incubation in buffer only (control, without any cell line), radio-TLC; assay type: in vitro ADME
# Method: as §9, with “The utilized substances within this study were neither found (see Supplementary Materials, Figure S14) nor reported to be cytotoxic within the utilized concentration range and incubation duration.” left out
# as §3
# [12] = 1 h, CA versus without carrier addition
smiles,measurement,setting,value
"Cc1ccc(-c2cc(C[18F])nn2-c2ccc(S(C)(=O)=O)cc2)cc1 [[^18F]1, 3-([^18F]fluoromethyl)-1-[4-(methylsulfonyl)phenyl]-5-(p-tolyl)-1H-pyrazole]",Intact tracer in supernatant,"[1]; 2 h incubation, 2–4 MBq/mL (28–187 nM)",14.6%
same,Metabolic turnover / stability of radiotracer (in words),"[1]; HepG2 CYP1A2, up to 2 h",formation of radiometabolites was observed
same,Metabolic turnover / stability of radiotracer (in words),[2],mainly intact radiotracer was found
same,Intact tracer [18F]1 remaining,[3],33%
same,Intact tracer [18F]1 remaining,[4],11%
same,Fraction of activity in cell lysates,[5],1–16%
same,Fraction of activity in supernatant,[5],64–91%
same,Metabolic turnover / stability of radiotracer (in words),[6],mainly intact radiotracer was found; also recorded: no metabolic turnover
same,Formation of second metabolite (M2),[7],did not lead to the second metabolite
same,Increase of intact tracer amount with carrier addition,[8]; [12],sevenfold
same,Amount of intact tracer,"[8]; 1 h, carrier-added (CA), 50 µM 1",30.3%
same,Amount of intact tracer,"[8]; 1 h, without carrier addition, 38 MBq/mL (931 nM), 1 mg/mL microsomes, NADPH",4.2%
same,Formation of second metabolite (M2),[8]; 1 h incubation,observed
same,Metabolic turnover / stability of radiotracer (in words),[9],mainly intact radiotracer was found
same,Increase of intact tracer amount with carrier addition,[10]; [12],10 fold
same,Amount of intact tracer,"[10]; 1 h, carrier-added (CA), 50 µM 1, radio-TLC",67.2%
same,Amount of intact tracer,"[10]; 1 h, without carrier addition, 24 MBq/mL (460 nM), radio-TLC",6.6%
same,Intact tracer in supernatant,"[10]; 1 h incubation, 2–4 MBq/mL (28–187 nM), radio-TLC",1.3%
same,Metabolic turnover / stability of radiotracer (in words),"[10]; HepG2 CYP2C19, up to 2 h, radio-TLC",formation of radiometabolites was observed
same,Metabolic turnover / stability of radiotracer (in words),"[11]; buffer only, up to 2 h, radio-TLC",no metabolic turnover
same,Defluorination without additional enzymes in the incubation buffer (KHB),[11]; reference incubation without any cell lines,to a minor extent

# From PMC9368227, “Investigation of Radiotracer Metabolic Stability In Vitro with CYP-Overexpressing Hepatoma Cell Lines” (Cells, 2022)
